Where only a bound is given, the exact number is not on record here.

The target in assay [1] is T1, IRAK1 (Homo sapiens (Human), UniProt P51617). Briefly: Western blots of IRAK1 protein degradation. The class given is cell-based.
The target of assay [2] is T2, IRAK4 (Homo sapiens (Human), UniProt Q9NWZ3). Briefly: Western blots of IRAK4 protein degradation. The class given is cell-based. Particulars: from western blots.
Assay [3] addresses T2, IRAK4. Briefly: ELISA assay for IRAK4 degradation in MCF7 cells. The class given is cell-based. Particulars: Table 1, 24 hours. The method, then:
Enzyme-Linked Immunosorbent Assay (ELISA) Assay for IRAK4 Degradation.
MCF7 cells, purchased from ATCC (Manassas, Va.), were used at a passage range of 2-19. Cells were prepared and treated with compounds for 24 hours, exactly as described above for the Western blots. The ELISA assay was performed using the kit and instructions described by Abcam (cat. #: ab213472, Abcam Biotechnology, Cambridge, Mass.). Table 1 below provides and compares the ELISA IRAK4 degradation data to the western blot IRAK 4 degradation data for Examples 2, 3, 4, and 5. Furthermore, FIG. 5 is a graph illustrating the ELISA IRAK4 degradation data.

The target in assay [4] is T2, IRAK4. Briefly: Western blot assay for assessing degradation of IRAK4 in MCF7 cells. Format: cell-based. Summed up:
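MCF7 cells were treated 24 h with serially diluted compound (0.1% DMSO final), then lysed in RIPA. IRAK4 and IRAK1 levels were measured by western blot with β-actin probed alongside. Percent degradation compared compound-treated with DMSO-treated lysates.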

Assay [5] concerns the target T1, IRAK1. Briefly: Western blot assay for degradation of IRAK1 in MCF7 cells. The class given is cell-based.
For assay [6], the target named is T2, IRAK4. Briefly: Biochemical Z'-Lyte FRET assay for IRAK4 kinase inhibition. Particulars: 2 nM enzyme, 1 mM ATP, 2 μM substrate. A digest of the protocol:
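Z′-Lyte FRET phosphorylation of Ser/Thr 7 peptide (2 µM) by 2 nM recombinant IRAK4 at 1 mM ATP in HEPES pH 7.5 with MgCl2/MnCl2, after 10 min enzyme–compound preincubation; 1 h at room temperature, then 1 h development, 460/530 nm emission. Duplicate 12-point, 3-fold curves from 30 µM; IC50 from percent inhibition against ±100% controls.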

Where [7] appears, read: Table 5, IRAK4 degradation, 24 hour incubation, read-out: IRAK4 Dmax (%).
Where [8] appears, read: western blot, 24 hour incubation, read-out: Dmax (IRAK4 degradation).
The mark [9] stands for this setting: Table 1, 24 hours, read-out: IRAK4 by western DC50.
Setting [10] is: Table 5, IRAK4 degradation, 24 hour incubation, read-out: IRAK4 DC50.
Where [11] appears, read: western blot, 24 hour incubation, read-out: DC50 (IRAK4 degradation).

T2 sequence (Q9NWZ3 whole entry): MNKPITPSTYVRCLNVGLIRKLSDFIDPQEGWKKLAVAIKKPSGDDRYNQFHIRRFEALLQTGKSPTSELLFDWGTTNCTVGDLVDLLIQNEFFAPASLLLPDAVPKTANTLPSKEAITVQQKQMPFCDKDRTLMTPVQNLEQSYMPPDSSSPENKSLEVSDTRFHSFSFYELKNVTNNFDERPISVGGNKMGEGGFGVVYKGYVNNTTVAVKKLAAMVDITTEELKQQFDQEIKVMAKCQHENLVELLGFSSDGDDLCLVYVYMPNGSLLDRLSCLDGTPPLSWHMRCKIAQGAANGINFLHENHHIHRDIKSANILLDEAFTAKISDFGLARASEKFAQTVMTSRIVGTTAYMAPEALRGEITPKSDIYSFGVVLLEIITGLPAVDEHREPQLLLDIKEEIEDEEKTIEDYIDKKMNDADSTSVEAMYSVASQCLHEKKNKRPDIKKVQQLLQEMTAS
T1 sequence (P51617 whole entry): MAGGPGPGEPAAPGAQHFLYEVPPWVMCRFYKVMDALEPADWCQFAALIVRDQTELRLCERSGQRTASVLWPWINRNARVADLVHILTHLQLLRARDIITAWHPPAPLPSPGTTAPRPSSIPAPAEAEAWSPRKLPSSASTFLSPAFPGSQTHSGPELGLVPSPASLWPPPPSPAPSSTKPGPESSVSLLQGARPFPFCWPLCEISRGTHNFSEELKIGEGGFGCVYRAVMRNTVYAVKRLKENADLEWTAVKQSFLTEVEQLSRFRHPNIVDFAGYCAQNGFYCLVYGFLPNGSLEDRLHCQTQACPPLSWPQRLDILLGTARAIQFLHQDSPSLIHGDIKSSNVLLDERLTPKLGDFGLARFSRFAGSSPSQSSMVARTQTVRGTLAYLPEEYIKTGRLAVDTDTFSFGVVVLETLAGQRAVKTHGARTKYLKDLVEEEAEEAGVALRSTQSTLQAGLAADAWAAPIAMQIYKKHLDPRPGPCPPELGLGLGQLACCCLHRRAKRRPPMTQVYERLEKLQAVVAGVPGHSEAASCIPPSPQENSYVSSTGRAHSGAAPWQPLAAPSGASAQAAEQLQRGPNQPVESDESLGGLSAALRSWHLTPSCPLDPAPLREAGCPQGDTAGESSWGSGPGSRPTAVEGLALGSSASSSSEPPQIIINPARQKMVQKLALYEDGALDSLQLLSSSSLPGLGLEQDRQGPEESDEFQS

As to `O=C1CCC(N2C(=O)c3ccc(OCCOCCN4CCN(Cc5ccc6c(c5)nc(NC(=O)c5cccc(C(F)(F)F)c5)n6C5CCC(CO)CC5)CC4)cc3C2=O)C(=O)N1` (stereo not drawn) [Exemplary Compound 2, N-(5-((4-(2-(2-((2-(2,6-dioxopiperidin-3-yl)-1,3-dioxoisoindolin-5-yl)oxy)ethoxy)ethyl)piperazin-1-yl)methyl)-1-((1s,4s)-4-(hydroxymethyl)cyclohexyl)-1H-benzo[d]imidazol-2-yl)-3-(trifluoromethyl)benzamide], at IRAK1 [1], the “degradation of IRAK1” value is “no significant degradation was observed”. At IRAK4 [2], half-maximal degradation (DC50) was put at 9.7 nM and the maximal degradation (Dmax) is listed as 71%.
Turning to `O=C1CCC(N2C(=O)c3ccc(OCCOCCN4CCN(Cc5ccc6c(c5)nc(NC(=O)c5cccc(C(F)(F)F)c5)n6C5CCC(CO)CC5)CC4)cc3C2=O)C(=O)N1` (stereo not drawn) [compound 2, N-(5-((4-(2-(2-((2-(2,6-dioxopiperidin-3-yl)-1,3-dioxoisoindolin-5-yl)oxy)ethoxy)ethyl)piperazin-1-yl)methyl)-1-((1s,4s)-4-(hydroxymethyl)cyclohexyl)-1H-benzo[d]imidazol-2-yl)-3-(trifluoromethyl)benzamide], the “IRAK4 by ELISA % degraded” value on IRAK4 [3] stood at 76%. On IRAK4 [4] (Table 1, 24 hours), the “IRAK4 by western % degraded” value turned out to be 71%. Also, the Dmax was 50 to 70% on IRAK4 [4] (setting [7]) and 71% on IRAK4 [4] (setting [8]). Further, at IRAK1 [5], the IRAK1 protein degradation result is on record as “no significant degradation was observed”.
With `O=C1CCC(N2C(=O)c3ccc(OCCOCCOCCN4CCN(Cc5ccc6c(c5)nc(NC(=O)c5cccc(C(F)(F)F)c5)n6[C@H]5CC[C@@H](CO)CC5)CC4)cc3C2=O)C(=O)N1` (stereo partly drawn) [compound 3, N-(5-((4-(2-(2-(2-((2-(2,6-dioxopiperidin-3-yl)-1,3-dioxoisoindolin-5-yl)oxy)ethoxy)ethoxy)ethyl)piperazin-1-yl)methyl)-1-((1s,4s)-4-(hydroxymethyl)cyclohexyl)-1H-benzo[d]imidazol-2-yl)-3-(trifluoromethyl)benzamide], the “IRAK4 by ELISA % degraded” value at IRAK4 [3] is 86%. In addition, the “IRAK4 by western % degraded” value on IRAK4 [4] (Table 1, 24 hours) was 80%. The DC50 is 23 nM on IRAK4 [4] (setting [9]), under 30 nM at IRAK4 [4] (setting [10]) and 23 nM on IRAK4 [4] (setting [11]). Further, the figures for the Dmax at IRAK4 [4] (setting [7]) and at IRAK4 [4] (setting [8]) were over 70% and 80%, respectively. Besides, the IRAK1 protein degradation result on IRAK1 [5] is on record as “no significant degradation was observed”. In addition, the IC50 against IRAK4 [6] was under 30 nM.
Take `O=C1CCC(N2C(=O)c3ccc(OCCOCCOCCOCCN4CCN(Cc5ccc6c(c5)nc(NC(=O)c5cccc(C(F)(F)F)c5)n6[C@H]5CC[C@@H](CO)CC5)CC4)cc3C2=O)C(=O)N1` (stereo partly drawn) [compound 4, N-(5-((4-(2-(2-(2-(2-((2-(2,6-dioxopiperidin-3-yl)-1,3-dioxoisoindolin-5-yl)oxy)ethoxy)ethoxy)ethoxy)ethyl)piperazin-1-yl)methyl)-1-((1s,4s)-4-(hydroxymethyl)cyclohexyl)-1H-benzo[d]imidazol-2-yl)-3-(trifluoromethyl)benzamide]: the “IRAK4 by ELISA % degraded” value at IRAK4 [3] was found to be 89%. Moreover, on IRAK4 [4] (Table 1, 24 hours), the “IRAK4 by western % degraded” value stood at 87%. The figures for the 50% degradation concentration (DC50) on IRAK4 [4] (setting [9]) and on IRAK4 [4] (setting [10]) were 25 nM and under 30 nM, respectively. For the same molecule, on IRAK4 [4] (setting [7]), the maximal degradation (Dmax) was over 70%. At IRAK4 [6], this molecule had an IC50 of under 30 nM.
Consider `O=C1CCC(N2C(=O)c3ccc(OCCOCCOCCOCCOCCN4CCN(Cc5ccc6c(c5)nc(NC(=O)c5cccc(C(F)(F)F)c5)n6[C@H]5CC[C@@H](CO)CC5)CC4)cc3C2=O)C(=O)N1` (stereo partly drawn) [compound 5, N-(5-((4-(14-((2-(2,6-dioxopiperidin-3-yl)-1,3-dioxoisoindolin-5-yl)oxy)-3,6,9,12-tetraoxatetradecyl)piperazin-1-yl)methyl)-1-((1s,4s)-4-(hydroxymethyl)cyclohexyl)-1H-benzo[d]imidazol-2-yl)-3-(trifluoromethyl)benzamide], for which the “IRAK4 by ELISA % degraded” value on IRAK4 [3] is on record as 80%. For the same molecule, the “IRAK4 by western % degraded” value on IRAK4 [4] (Table 1, 24 hours) turned out to be 76%. The DC50 at IRAK4 [4] (setting [9]) was 40 nM; on IRAK4 [4] (setting [10]) it was 30 to 100 nM. Moreover, the greatest degradation seen (Dmax) at IRAK4 [4] (setting [7]) was 50 to 70%. This molecule came in with a 50% inhibitory concentration (IC50) on IRAK4 [6] of under 30 nM.
On to `COc1cc2nn(C3CCN(CCOCCOc4ccc5c(c4)CN(C4CCC(=O)NC4=O)C5=O)CC3)cc2cc1NC(=O)c1cccc(C(F)(F)F)n1` (stereo not drawn) [compound 60, N-(2-(1-(2-(2-((2-(2,6-dioxopiperidin-3-yl)-1-oxoisoindolin-5-yl)oxy)ethoxy)ethyl)piperidin-4-yl)-6-methoxy-2H-indazol-5-yl)-6-(trifluoromethyl)picolinamide], for which the 50% degradation concentration (DC50) on IRAK4 [4] (setting [10]) was under 30 nM; on IRAK4 [4] (setting [11]), 3.5 nM; on IRAK4 [2] it was 3.5 nM. Besides, the greatest degradation seen (Dmax) on IRAK4 [4] (setting [7]) is 50 to 70%; on IRAK4 [4] (setting [8]), 73%; at IRAK4 [2] (read-out: Dmax) it was 73%. At IRAK4 [6], this molecule had a half-inhibitory concentration (IC50) of under 30 nM.
Regarding `COc1cc2nn(C3CCN(CCOCCOCCOc4ccc5c(c4)CN(C4CCC(=O)NC4=O)C5=O)CC3)cc2cc1NC(=O)c1cccc(C(F)(F)F)n1` (stereo not drawn) [compound 61, N-(2-(1-(2-(2-(2-((2-(2,6-dioxopiperidin-3-yl)-1-oxoisoindolin-5-yl)oxy)ethoxy)ethoxy)ethyl)piperadin-4-yl)-6-methoxy-2H-indazol-5-yl)-6-(trifluoromethyl)picolinamide], at IRAK4 [4] (setting [10]), the DC50 was at least 1000 nM. Also, the IC50 against IRAK4 [6] was under 30 nM.
With `COc1cc2nn(C3CCN(CC4CCN(CCOc5ccc6c(c5)C(=O)N(C5CCC(=O)NC5=O)C6=O)CC4)CC3)cc2cc1NC(=O)c1cccc(C(F)(F)F)n1` (stereo not drawn) [compound 63, N-(2-(1-((1-(2-((2-(2,6-dioxopiperidin-3-yl)-1,3-dioxoisoindolin-5-yl)oxy)ethyl)piperadin-4-yl)methyl)piperidin-4-yl)-6-methoxy-2H-indazol-5-yl)-6-(trifluoromethyl)picolinamide], the DC50 at IRAK4 [4] (setting [10]) was 30 to 100 nM. The Dmax at IRAK4 [4] (setting [7]) is over 70%. At IRAK4 [6], this molecule displayed a 50% inhibitory concentration (IC50) of under 30 nM.
`O=C1CCC(N2C(=O)c3cccc(NCCOCCOCCN4CCN(Cc5ccc6c(c5)nc(NC(=O)c5cccc(C(F)(F)F)c5)n6[C@H]5CC[C@@H](CO)CC5)CC4)c3C2=O)C(=O)N1` (stereo partly drawn) [compound 66, N-(5-((4-(2-(2-(2-((2-(2,6-dioxopiperidin-3-yl)-1,3-dioxoisoindolin-4-yl)amino)ethoxy)ethoxy)ethyl)piperazin-1-yl)methyl)-1-((1s,4s)-4-(hydroxymethyl)cyclohexyl)-1H-benzo[d]imidazol-2-yl)-3-(trifluoromethyl)benzamide]: at IRAK4 [4] (setting [10]), the 50% degradation concentration (DC50) was 300 to 1000 nM. Further, the half-maximal inhibitory concentration (IC50) on IRAK4 [6] is under 30 nM.
Regarding “N-(1-(3-((2-(2,6- dioxopiperidin-3-yl)-1,3- dioxoisoindolin-5- yl)oxy)ethyl)(methyl)amino) phenyl)-5-(piperadin-1- yl)methyl)-1H- benzo[d]imidazol-2-yl)-3- (trifluoromethyl)benzamide [compound 68]”, the “IRAK4 Dmax (%)” value on IRAK4 [4] (Table 5, IRAK4 degradation, 24 hour incubation) is recorded as “C (50 ≥ C > 30)”. On IRAK4 [4] (setting [10]), the 50% degradation concentration (DC50) lay in the range of 300 to 1000 nM. In addition, the IC50 on IRAK4 [6] is at least 1000 nM.
“N-(1-((1s,4s)-4-(13-((2-(2,6- dioxopiperidin-3-yl)-1,3- dioxoisoindolin-5-yl)oxy)- 2,5,8,11- tetraoxatetradecyl)cyclohexyl)- 5-(piperidin-1-ylmethyl)-1H- benzo[d]imidazol-2-yl)-3- (trifluoromethyl)benzamide [compound 42]”: the half-maximal degradation concentration (DC50) on IRAK4 [4] (setting [10]) was at least 1000 nM. The molecule also gave an IC50 on IRAK4 [6] of 300 to 1000 nM.

Values taken from patent publication US11065231B2, “Compounds and methods for the targeted degradation of interleukin-1 receptor- associated kinase 4 polypeptides” (Arvinas Operations, Inc., priority 2017, dated 2021).
